We go through 1 compound from patent US10800755B2, “2,6-disubstituted pyridine derivative” (Sumitomo Dainippon Pharma Co., Ltd., priority 2017, dated 2020).

Series [1] concerns the target human 5-HT1A receptor (Homo sapiens (Human), UniProt P08908). The series is described as follows: Test 2: binding activity to human 5-HT1A receptor ([3H] 8-OH-DPAT, CHO cell membrane). Conditions: [3H] 8-OH-DPAT; read-out: 5-HT1A binding affinity (Ki value).
For series [2], the system named is SD male rat. The experiment in a line: Test 6: contextual fear conditioning test. Conditions: 15 mg/kg administration. Format: in vivo. How it is done:
Test 6: Contextual Fear Conditioning Test
The antianxiety of the present compounds was evaluated in a manner mentioned below.
The evaluation of an 8-week-old SD male rat with a fear conditioning test system (O'HARA & CO., LTD.) was carried out in 2-day test schedule. On the 1st day of the test, by giving 0.5 mA of electric shock to the rat as unconditioned stimulus 5 times for 6 minutes, the rat was made to learn the relationship the context (the illuminance in the cage: 200 lx) which was given as conditioned stimulus, and phobic stimulus. On the 2nd day, the present compound was subcutaneously administered with saline solution to the rat, or orally administered with methylcellulose suspension to the rat. 0.5 or 1 hour after the administration, the rat was made to softly enter the cage under the condition in which the unconditioned stimulus was not given in the context. The time of cataleptic freezing reaction that the rat took for 5-minute freely-moving period and its ratio were measured. The ratios of cataleptic freezing reaction between the solvent-administration group and the present compound-administration group were compared to be statistically processed.

Series [3] is described as follows: Test 4-1: predictive test of human half-life (monkey distribution volume, serum unbound fraction, Test 3-1 stability). Conditions: in vivo, predicted using Test 3-1 metabolic stability. The procedure: Test 4-1: Predictive Test of Human Half-Life
0.01 mol/L of the present compound in aqueous hydrochloric acid solution was parenterally administered to cynomolgus monkey. 5 minutes, 15 minutes, 30 minutes, 1 hour, 2 hours, 4 hours, 6 hours, and 24 hours after the administration, the blood was collected. The plasma was obtained from the collected blood, the drug concentration in the plasma was measured with a LC-MS, and the monkey distribution volume was calculated from the transition of the concentrations. The unbound fraction rate of the present compound in serum of human and monkey was measured by equilibrium dialysis method.
Using the monkey distribution volume, the unbound fraction rate in serum of human and monkey, and the result of the metabolic stability of human liver microsome which was obtained in Test 3-1, the half-life in human was calculated according to the formula below. “Human distribution volume”=“monkey distribution volume”×“unbound fraction rate in serum of human”/“unbound fraction rate in serum of monkey” “Human hepatic clearance”=(“human hepatic blood flow”×“unbound fraction rate in serum of human”×56.7×“metabolic stability of human liver microsome”)/(“human hepatic blood flow”+“unbound fraction rate in serum of human”×56.7×“metabolic stability of human liver microsome”) “Half-life in human”=0.693×“human distribution volume”/“human hepatic clearance”

In series [4] the target is human D2 receptor (Homo sapiens (Human), UniProt P14416). The experiment in a line: Test 2: binding activity to human D2 receptor ([3H] spiperone, CHO cell membrane). Particulars: [3H] spiperone; read-out: D2 binding affinity (Ki value).
human D2 receptor, sequence (P14416 whole entry): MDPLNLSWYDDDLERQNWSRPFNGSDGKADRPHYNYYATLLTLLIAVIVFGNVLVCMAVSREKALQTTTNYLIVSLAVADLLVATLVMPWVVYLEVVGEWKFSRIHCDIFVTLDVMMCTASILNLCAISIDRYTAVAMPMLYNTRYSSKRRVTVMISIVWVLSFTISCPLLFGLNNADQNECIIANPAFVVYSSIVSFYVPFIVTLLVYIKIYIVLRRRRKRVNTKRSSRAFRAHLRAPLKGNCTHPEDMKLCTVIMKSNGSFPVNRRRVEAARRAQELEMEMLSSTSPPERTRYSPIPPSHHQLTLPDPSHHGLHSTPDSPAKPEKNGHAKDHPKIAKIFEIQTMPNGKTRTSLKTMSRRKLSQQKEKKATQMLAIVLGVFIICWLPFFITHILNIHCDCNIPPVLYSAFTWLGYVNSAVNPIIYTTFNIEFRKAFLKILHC
Series [5] has as its system Wistar male rat. The series is described as follows: Test 8: forced swimming test. Format: in vivo. Conditions: oral, once a day, 5 mg/kg administration. The procedure: Test 8: Forced Swimming Test
The antidepressive effect of the present compound was evaluated in a manner mentioned below.
The test was carried out with 8-week-old Wistar male rat in 4-day test schedule. On the 1st day of the test, the rat was put into a transparent plastic bath filled with 5.8 L of tap water at 25° C., and made to swim for 15 minutes as swimming training. After the swimming training, the rat was rapidly wiped to remove the attached waterdrop, and returned to the home cage. 15 minutes after the training, the present compound or a positive control compound was orally administered with methylcellulose suspension to the rat. On the next day of the training and the day after next, the present compound or the positive control compound was orally administered with methylcellulose suspension to the rat once a day. On the 4th day, the swimming test was carried out. On the day of the swimming test, the present compound or the positive control compound was orally administered with methylcellulose suspension to the rat one hour before the start of the test. The swimming test was carried out with the rat in the above-mentioned water bath for 5 minutes. The swimming movement of the individual was recorded with a video from the side of the water bath, and the immobility time was measured with a stop-watch. […]

Molecules are shown by their SMILES.

human 5-HT1A receptor, sequence (P08908 whole entry): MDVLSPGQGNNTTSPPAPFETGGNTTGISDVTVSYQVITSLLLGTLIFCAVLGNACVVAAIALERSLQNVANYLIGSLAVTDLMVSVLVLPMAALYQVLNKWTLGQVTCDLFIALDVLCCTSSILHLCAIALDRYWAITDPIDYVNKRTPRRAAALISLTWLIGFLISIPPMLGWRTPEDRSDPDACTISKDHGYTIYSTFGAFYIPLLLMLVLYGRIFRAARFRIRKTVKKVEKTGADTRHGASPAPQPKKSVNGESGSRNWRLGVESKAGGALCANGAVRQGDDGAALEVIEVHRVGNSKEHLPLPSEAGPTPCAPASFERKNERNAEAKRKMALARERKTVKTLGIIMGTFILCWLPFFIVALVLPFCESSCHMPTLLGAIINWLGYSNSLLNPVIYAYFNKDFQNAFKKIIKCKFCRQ

For the compound `O=C(NCCN1CCC(c2cccc(C(F)(F)F)n2)CC1)C1CCC(F)(F)CC1` [Example 1, 4,4-Difluoro-N-(2-{4-[6-(trifluoromethyl)pyridin-2-yl]piperidin-1-yl}ethyl)cyclohexane-carboxamide], the Ki in series [1] was determined as 0.4 nM; in series [4], 1140 nM. The “decrease of the cataleptic freezing reaction for the solvent-administration group” value in series [2] turned out to be 82.5%. In addition, the half-life in series [3] is 11 h. Further, in series [5], the “decrease of the immobility time for the solvent-administration group” value is 74.7%.

One may read the Ki as the dissociation constant of the complex between target and ligand, obtained from inhibition or displacement. The term half-life denotes the time in which the quantity being followed falls by half.
